Reference: US4410514A, “GnRH Agonists” (The Salk Institute for Biological Studies, priority 1982, dated 1983)
Where a SMILES comes first, the peptide text is derived from it. [ ]: non-standard residue; d: D form. pGlu = O=C1CC[C@@H](C(=O)O)N1

System: release of LH by the anterior pituitary in fish
Experiment: in vivo salmon assay, radioimmunoassay for LH level in blood
Conditions: salmon of about 2 kg, about 10 μg injected per fish, blood taken about 2 hours after injection, same amount of mammalian GnRH as comparator
Procedure: The peptide is assayed in vivo using salmon having an average weight of about 2 kg, and each fish is injected with about 10 μg. Additional fish are injected with the same amount of mammalian GnRH. Both sets are then compared with controls. About 2 hours following injection, the salmon are sacrificed, and the blood withdrawn for specific radioimmunoassay for LH level.

**Q.** Which “potency in causing the release of LH by the anterior pituitary, compared with mammalian GnRH” value does the source give for CCNC(=O)[C@@H]1CCCN1C(=O)[C@H](CC(C)C)NC(=O)[C@H](Cc1c[nH]c2ccccc12)NC(=O)[C@@H](C)NC(=O)[C@H](Cc1ccc(O)cc1)NC(=O)[C@H](CO)NC(=O)[C@H](Cc1c[nH]c2ccccc12)NC(=O)[C@H](Cc1c[nH]cn1)NC(=O)[C@@H]1CCC(=O)N1 [Peptide 1, pGlu--His--Trp--Ser--Tyr--D--Ala--Trp--Leu--Pro--NHCH2 CH3] ([pGlu]HWSY[dA]WLP-NHEt) here?
**A.** substantially more potent than mammalian GnRH
